The IC50 is the concentration needed to halve the response being measured.

The structures appear in SMILES notation. Records with an inconclusive call do not appear. Activity calls are given as the source filed them. The rule behind the calls is not given here.

The assay concerns Mycobacterium tuberculosis non-replicating, growth inhibition. Put plainly: growth inhibition of non-replicating M. tuberculosis (AID 488890).
For the compound `CCC(CC)c1nnc(NC(=O)c2ccc3ccccc3n2)s1`, the half-maximal inhibitory concentration (IC50) was 4.02 µM.
To `O=C(c1ccccc1[N+](=O)[O-])N1N=C(c2ccccc2)CC1(O)C(F)(F)F` (stereo unspecified) belongs 3.92 µM; to `COc1cc(OC)nc(-n2ncc(Br)c(Br)c2=O)n1`, 6.07 µM.
To `O=C(CCCOc1ccccc1)OCn1nnc2ccccc2c1=O` belongs 24.8 µM (inactive); to `CCNC(=O)COC(=O)c1ccc(-c2nc3ccccc3s2)s1`, 5.7 µM; to `NCCNc1ccc([N+](=O)[O-])c2cccnc12`, 4.89 µM.
With `O=C1CSC(=S)N1Cc1cccnc1`, the IC50 was 6.18 µM.
The result for `O=C(OCc1c(Cl)cccc1Cl)c1ccccn1` reads 6.6 µM; that for `Cc1ccc(C(=O)CCNc2ccc(F)c(Cl)c2)o1`, 11 µM (inactive); that for `O=[N+]([O-])c1ccc(N2CCN(Cc3ccc([N+](=O)[O-])o3)CC2)cc1`, below 0.1 µM.
In the case of `CCN(CC)CCCN(C(=O)c1ccco1)c1nc(-c2ccc(C)cc2)cs1`, the IC50 is 21.9 µM (inactive).
To `CC(C)(C)NCc1cc(Br)ccc1OC1CCCC1` belongs 8.01 µM; to `CCCCOC(=O)c1ccc(NC(=O)c2nn(C)cc2Br)cc1`, 20.4 µM (inactive); to `O=S(=O)(c1ccc(OCC2CO2)cc1)c1ccc(OCC2CO2)cc1` (stereo unspecified), 19.7 µM (inactive).
The result for `Cc1ccc(C(=O)COC(=O)c2cccs2)cc1` reads 11 µM (inactive); that for `Cc1ccc(/C=N/NC(=O)C2COc3ccccc3O2)s1` (stereo unspecified), 0.7 µM; that for `COc1cc(OC)cc(-c2nc3ccccc3c(=O)o2)c1`, 2.33 µM.
To `CCN1CCN(Cc2cc(C(C)(C)C)c(O)c(C(C)(C)C)c2)CC1` belongs 3.48 µM.
Consider `O=S1(=O)C=C(Sc2nnc(-c3ccccc3)o2)c2ccccc21`, for which the IC50 is below 0.1 µM.
Consider `Cc1nnc(N/N=C/c2cccc(OCc3ccc(Cl)c(Cl)c3)c2)n1N`, for which the IC50 is 3.37 µM.
The result for `N#Cc1ccc(N=c2ssnc2Cl)cc1` reads 18.1 µM (inactive).
To `Cc1ccc(NC(=O)C(=O)NNC(=O)c2ccccc2C)cc1Cl` belongs 2.67 µM; to `C/C(=N\NC(=O)c1ccccc1OCc1ccc(F)cc1)c1ccccn1`, 2.82 µM; to `COc1ccc(C2=Nc3ccccc3OC2)cc1`, 5.2 µM.
Consider `Cc1cc(C)c2sc(NC(=O)C3=COCCO3)nc2c1`, for which the IC50 is 8.29 µM.
With `COc1cc(/C=N/NC(=O)c2ccncc2)ccc1OC(=O)c1cccc(F)c1`, the IC50 is 3.53 µM.
As for `Cc1ccc2nc3c(c(N)c2c1)CCN3c1ccccc1`, the IC50 is 28.4 µM (inactive).
The result for `CCc1ccc(N2C(=O)CC(N3CCC(C(=O)OC)CC3)C2=O)cc1` (stereo unspecified) reads 34.6 µM (inactive); that for `CCCc1ccc(OCc2ccc(C(=O)N/N=C/c3cccnc3)o2)cc1`, 8.42 µM.
To `CCNC(=O)NC(=O)C(C)OC(=O)CCCSc1nc2ccccc2s1` (stereo unspecified) belongs 4.68 µM; to `Cc1ccc(SCCC(=O)OCC(=O)NCC2CCCCC2)cc1`, 16.6 µM (inactive).
The result for `COc1cccc(NC(=O)c2cnc(SC)nc2)c1` reads 10.4 µM (inactive).
`Cc1ccc(OCCCCc2c(C)n[nH]c2C)cc1`: the IC50 was 8.01 µM.
`Cc1cc(Br)ccc1OCC(=O)NNC(=O)c1cnccn1`: the IC50 is 6.09 µM.
The result for `CCc1nnc(N/N=C/c2ccc(-c3ccc([N+](=O)[O-])cc3)o2)n1N` reads 7.59 µM.
To `CCOc1ccc(-c2ccc(C=O)o2)c([N+](=O)[O-])c1` belongs 19 µM (inactive); to `O=C(Oc1c(-c2ccco2)oc2ccccc2c1=O)c1cccnc1`, 11.5 µM (inactive); to `C(=C\c1ccccc1)/CSc1nc2ncccc2[nH]1`, 4.36 µM.
The result for `Cc1ccc(C(=O)N/N=C/C=C/c2ccccc2)cc1` reads 3.77 µM; that for `c1coc(CNc2nc(N3CCCCC3)nc3ccccc23)c1`, 2.9 µM; that for `O=[N+]([O-])c1ccc(S(=O)(=O)c2cccc(C(F)(F)F)c2)nc1`, below 0.1 µM.
`O=C(C1CCN(C2CC(=O)N(Cc3ccccc3)C2=O)CC1)N1CCCCCC1` (stereo unspecified): the IC50 was 7.22 µM.
The result for `O=C(OCc1cccc(F)c1)c1ccc2c(=O)n3c(nc2c1)CCC3` reads 8.62 µM; that for `CCOc1ccc(NC(=O)COC(=O)C2(C)CC2(Cl)Cl)c([N+](=O)[O-])c1` (stereo unspecified), 10.8 µM (inactive); that for `COc1ccc(C(=O)Cn2c(C)nc([N+](=O)[O-])c2Br)cc1`, 19.9 µM (inactive).
In the case of `O=C(Nc1nc2ccccc2[nH]1)c1cccc(Cl)c1`, the IC50 was 9.06 µM.
For the compound `Cc1ccc(CCC(=O)Nc2cc(Cl)ccc2Cl)o1`, the IC50 is 3.79 µM.
To `Cc1c(CN(C)C)c2c(n1Cc1ccccc1)C(=O)c1ccc(Br)cc1-2` belongs 16 µM (inactive); to `CN1C2CCC1/C(=C/c1ccccn1)C(=O)/C2=C\c1ccccn1`, 16.3 µM (inactive); to `O=C1Nc2cc(C(=O)NCCCN3CCOCC3)ccc2S/C1=C/c1cccc(Cl)c1`, 20.8 µM (inactive).
As for `Cc1c(CN2CCC(CO)(CCOc3ccccc3)CC2)[nH]c2ccc(Cl)cc12`, the IC50 is 15.9 µM (inactive).
To `O=C1CCCC(O)=C1C=Nc1ccc2c(c1)oc1ccccc12` belongs 8.18 µM.
The result for `CCc1ccc(C(=O)NC2CCCCC2)s1` reads 0.94 µM; that for `CCC(=O)N/N=C/c1ccc(-c2ccc(Cl)cc2)o1`, 8.36 µM; that for `O=C1/C(=C/c2ccco2)CCC1C1CCCC1` (stereo unspecified), 13.8 µM (inactive).
To `CCCCN(C)S(=O)(=O)c1ccc(C(=O)Nc2nnc(-c3ccco3)o2)cc1` belongs 23 µM (inactive); to `O=C(COc1ccc(Nc2ccccc2)cc1)OCC(=O)N1CCCCC1`, 6.24 µM; to `Brc1c(-c2ccc3c(c2)OCO3)nc2ncccn12`, 1.1 µM.
Turning to `O=C(N/N=C/c1ccc(OC(=O)c2ccco2)cc1)c1ccccn1`, the IC50 was 6.05 µM.
The result for `CC(NCCCOc1cccc2ccccc12)c1ccccc1` (stereo unspecified) reads 15.5 µM (inactive); that for `CCCC(=O)OCCNc1cc(Sc2nccn2C)c2nonc2c1[N+](=O)[O-]`, 2.57 µM; that for `FC(F)c1nnc2ccc(Cl)nn12`, 5.9 µM.
The result for `Cc1ccc(-n2cc(CNCCc3cscn3)c(-c3ccc(F)cc3)n2)cc1` reads 10.9 µM (inactive).
The result for `Cc1cc(C)n(-c2nc(NCCCO)c3c4c(sc3n2)CCCC4)n1` reads 10.5 µM (inactive).
On to `Cc1ccc(S(=O)(=O)/N=C(\CCl)N2CCOCC2)cc1`, for which the IC50 is 11.9 µM (inactive).
The result for `Cc1ccc(NC(=O)COc2ccccc2)cc1Cl` reads 9.92 µM; that for `O=C(CN1CCC(Cc2ccccc2)CC1)NC(=O)NC1CCCCC1`, 19 µM (inactive); that for `Cc1[nH]n(S(=O)(=O)Cc2ccccc2)c(=O)c1N=Nc1ccccc1Cl`, 4.72 µM.
The result for `CCCOC(=O)c1ccc(NC(=O)Cc2cccs2)cc1` reads 24.1 µM (inactive).
The result for `CCCn1c(CNc2ccccc2O)nc2ccccc21` reads 3.3 µM; that for `Cc1c(CN2CCC(CO)(CCOc3ccccc3)CC2)[nH]c2c(Cl)cccc12`, 8.93 µM; that for `Cc1cc(-c2n[nH]c(=S)n2/N=C/C(Br)=C/c2ccccc2)n[nH]1`, 19.8 µM (inactive).
With `CC(NCc1ccc(OCc2ccc(Cl)cc2)cc1)C(O)c1ccccc1` (stereo unspecified), the IC50 is 6.84 µM.
The result for `O=[N+]([O-])c1ccc(CN2CCN(c3ccc(Cl)cc3)CC2)o1` reads below 0.1 µM; that for `CC(C)(C)CC(=O)NC(=S)NCc1ccco1`, 4.56 µM.
To `C/C(=N\NC(=O)c1ccccc1O)C1C(=O)c2ccccc2C1=O` belongs 0.64 µM; to `Cc1c(Cl)cccc1-c1ccc(CNCc2ccccn2)o1`, 4.58 µM; to `Clc1cccc(-c2ccc(CNCc3ccccn3)o2)c1`, 6.87 µM.
Regarding `Cc1onc(-c2ccccc2)c1C(=O)Nc1nnc(COc2ccc(Cl)cc2)s1`, the IC50 was 8.2 µM.
The result for `COc1cccc(C(=O)N/N=C(/c2ccccc2)c2ccccn2)c1` reads 4.04 µM; that for `O=C(Nc1ccc(N2CCN(C(=O)c3ccco3)CC2)c(Cl)c1)c1cccs1`, 9.56 µM.
The result for `C/C(=N\NC(=O)CCCNc1ccc(C)cc1)c1ccccn1` reads 9.07 µM; that for `O=C(N/N=C/C(Br)=C/c1ccccc1)c1cnccn1`, 13.1 µM (inactive); that for `O=[N+]([O-])c1cncc([N+](=O)[O-])c1Nc1cccc(O)c1`, 22.3 µM (inactive).
To `CCOC(=O)COc1ccc2c(c1)c(C(=O)OCC)c(C)n2CC` belongs 10.9 µM (inactive); to `COc1ccc(NC(=O)c2cc3ccccc3o2)cc1`, 5.57 µM.
In the case of `COc1ccc(C(=O)CCS(=O)(=O)c2ccc(C)cc2)cc1OC`, the IC50 was 4.05 µM.
Turning to `COc1cccc(-c2nnc(NC(=O)c3ccc4ncsc4c3)o2)c1`, the IC50 was 9.06 µM.
To `COc1cccc(OC(=O)c2cc3ccccc3oc2=O)c1` belongs 14.2 µM (inactive); to `O=C(CCN1C(=O)S/C(=C\c2ccc(F)cc2)C1=O)Nc1ccc(C(=O)O)c(O)c1`, 0.17 µM.
The result for `COc1cc(/C=C2/C(=O)NN(c3cccc(F)c3)C2=O)ccc1OC(=O)c1ccco1` reads 5.04 µM; that for `COc1cccc(NC(=O)c2ccc(-c3ccc([N+](=O)[O-])cc3)o2)c1`, 1.2 µM.
To `O=C1c2ccccc2CC1Sc1nnc(-c2ccncc2)o1` (stereo unspecified) belongs 23.9 µM (inactive); to `Cc1cc(C)n2nc(S(=O)(=O)Nc3c(Cl)cccc3Cl)nc2n1`, 3.15 µM.
As for `O=C(NN=C(Cc1ccccc1)Cc1ccccc1)c1ccncc1`, the 50% inhibitory concentration (IC50) was 0.35 µM.
Take `Cc1cc(C)nc(Sc2ncnc(N)c2[N+](=O)[O-])n1`: the IC50 was 10.7 µM (inactive).
The result for `COc1cccc2cc(C(=O)NCc3ccc(F)cc3)c(=N)oc12` reads 8.67 µM.
In the case of `O=C(Nc1ccccn1)c1ccc(C(=O)c2ccccc2)cc1`, the IC50 is 18.4 µM (inactive).
The result for `CCOC(=O)COc1ccc2c(=O)c(-c3ccccc3)coc2c1` reads below 0.1 µM.
The result for `CCCn1c(NC(=O)c2ccccc2)nc2ccccc21` reads 8.74 µM; that for `Cc1cc(Cl)ccc1OCCCC(=O)NO`, 14.6 µM (inactive).

Source of the values: PubChem BioAssay AID488890 (Southern Research Specialized Biocontainment Screening …, 2010).
